Data reported in patent publication US8058444B2, “Heterocycle-substituted pyridine derivative's salt or crystal thereof” (Eisai R&D Management Co., Ltd., priority 2007, dated 2011).
Structures can show the parent of a compound that is named as a salt.

Test system: C. albicans E81022 strain
Assay: Experimental systemic candidal infection model in mice
Format: in vivo
Settings: peroral (into the stomach), female ICR mice infected i.v. with C. albicans E81022, observed until 14 days after infection
Description: 1. Experimental Systemic Candidal Infection Model in Mice
A standing culture of C. albicans E81022 strain was carried out for 48 hours at 30° C in sabouraud dextrose agar medium (SDA), the recovered fungal cells were suspended in sterilized physiological saline. By counting the fungal number on cytometry plate, the suspension was diluted to 2×10^7 cells/mL with sterilized physiological saline to serve fungal inoculum.
The fungal inoculum was used in the amounts of 0.2 mL to inoculate 4.5 to 5.5 week-old female ICR mice in the tail vein (4×10^6 cells/mouse).
From 0.5 and 1 hours after fungal inoculation, 0.2 mL of agent solution (compound of Reference Example 1 dissolved to 5 mg/ml in 50 mM hydrochloric acid, diluted suitably in sterile water, and then, diluted 10-fold in 5% fructose solution) was administered into the stomach using a peroral probe twice every 6 hours. […]
The protective effect was determined by observing lifeldeath until 14 days after infection and calculating the mean survival days.

SMILES: Nc1ncccc1-c1cc(Cc2ccc(COc3ccccn3)cc2)no1 [Hydrochloride of Reference Example 1, 3-(3-(4-(Pyridin-2-yloxymethyl)-benzyl)-isoxazol-5-yl)-pyridin-2-yl amine]
- Mean Survival Days (2.5 mg/kg): 11.0 days
- Mean Survival Days (5 mg/kg): 13.4 days
